The kinase profiling compilation of Christmann-Franck et al. (2016)
“And” between values parts separate entries of the source, which are not always exact repeats. Equal values may be shown once.

Tests used:
Assay in all cases: radiometric filter-binding kinase assay, Kinase HotSpot
Details in all cases: compound 0.5 µM; ATP 10 µM
NEK1 (human) = NEK1 (human) (UniProt Q96PY6)
NUAK1 (human) = NUAK1 (human) (UniProt O60285)
PAK6 (human) = PAK6 (human) (UniProt Q9NQU5)
CLK4 (human) = CLK4 (human) (UniProt Q9HAZ1)
RPS6KB2 (human) = RPS6KB2 (human) (UniProt Q9UBS0)
[1] = molecular target: JAK1 JH1 catalytic (human) (UniProt P23458)
MAPK9 (human) = MAPK9 (human) (UniProt P45984)
PRKG1 (human) = PRKG1 (human) (UniProt Q13976)
RET (human) = RET (human) (UniProt P07949)
SRPK1 (human) = SRPK1 (human) (UniProt Q96SB4)
FGFR2 (human) = FGFR2 (human) (UniProt P21802)
PTK6 (human) = PTK6 (human) (UniProt Q13882)
PNCK (human) = PNCK (human) (UniProt Q6P2M8)
RPS6KA5 KD2 (human) = RPS6KA5 KD2 (human) (UniProt O75582)
STK24 (human) = STK24 (human) (UniProt Q9Y6E0)
RPS6KA1 KD1 KD2 (human) = RPS6KA1 KD1 KD2 (human) (UniProt Q15418)
CSNK1A1 (human) = CSNK1A1 (human) (UniProt P48729)
ULK1 (human) = ULK1 (human) (UniProt O75385)
CDK9 CCNT1 (human) = CDK9 CCNT1 (human) (UniProt P50750+O60563)
MLTK (human) = MLTK (human) (UniProt Q9NYL2)
KIT (human) = KIT (human) (UniProt P10721)
NEK3 (human) = NEK3 (human) (UniProt P51956)
EPHB1 (human) = EPHB1 (human) (UniProt P54762)
NTRK3 (human) = NTRK3 (human) (UniProt Q16288)
SRPK2 (human) = SRPK2 (human) (UniProt P78362)
PTK2 (human) = PTK2 (human) (UniProt Q05397)
MAP3K11 (human) = MAP3K11 (human) (UniProt Q16584)
KDR (human) = KDR (human) (UniProt P35968)
LYN (human) = LYN (human) (UniProt P07948)
PRKCH (human) = PRKCH (human) (UniProt P24723)
CAMK1 (human) = CAMK1 (human) (UniProt Q14012)
NTRK2 (human) = NTRK2 (human) (UniProt Q16620)
CDK6 CCND1 (human) = CDK6 CCND1 (human) (UniProt Q00534+P24385)
PHKG2 (human) = PHKG2 (human) (UniProt P15735)
SRMS (human) = SRMS (human) (UniProt Q9H3Y6)
TTK (human) = TTK (human) (UniProt P33981)
LTK (human) = LTK (human) (UniProt P29376)
NEK11 (human) = NEK11 (human) (UniProt Q8NG66)
FYN (human) = FYN (human) (UniProt P06241)
ADRBK1 (human) = ADRBK1 (human) (UniProt P25098)
MAPK3 (human) = MAPK3 (human) (UniProt P27361)
MELK (human) = MELK (human) (UniProt Q14680)

Chain of EPHB1 (human) (P54762 whole entry, looked up): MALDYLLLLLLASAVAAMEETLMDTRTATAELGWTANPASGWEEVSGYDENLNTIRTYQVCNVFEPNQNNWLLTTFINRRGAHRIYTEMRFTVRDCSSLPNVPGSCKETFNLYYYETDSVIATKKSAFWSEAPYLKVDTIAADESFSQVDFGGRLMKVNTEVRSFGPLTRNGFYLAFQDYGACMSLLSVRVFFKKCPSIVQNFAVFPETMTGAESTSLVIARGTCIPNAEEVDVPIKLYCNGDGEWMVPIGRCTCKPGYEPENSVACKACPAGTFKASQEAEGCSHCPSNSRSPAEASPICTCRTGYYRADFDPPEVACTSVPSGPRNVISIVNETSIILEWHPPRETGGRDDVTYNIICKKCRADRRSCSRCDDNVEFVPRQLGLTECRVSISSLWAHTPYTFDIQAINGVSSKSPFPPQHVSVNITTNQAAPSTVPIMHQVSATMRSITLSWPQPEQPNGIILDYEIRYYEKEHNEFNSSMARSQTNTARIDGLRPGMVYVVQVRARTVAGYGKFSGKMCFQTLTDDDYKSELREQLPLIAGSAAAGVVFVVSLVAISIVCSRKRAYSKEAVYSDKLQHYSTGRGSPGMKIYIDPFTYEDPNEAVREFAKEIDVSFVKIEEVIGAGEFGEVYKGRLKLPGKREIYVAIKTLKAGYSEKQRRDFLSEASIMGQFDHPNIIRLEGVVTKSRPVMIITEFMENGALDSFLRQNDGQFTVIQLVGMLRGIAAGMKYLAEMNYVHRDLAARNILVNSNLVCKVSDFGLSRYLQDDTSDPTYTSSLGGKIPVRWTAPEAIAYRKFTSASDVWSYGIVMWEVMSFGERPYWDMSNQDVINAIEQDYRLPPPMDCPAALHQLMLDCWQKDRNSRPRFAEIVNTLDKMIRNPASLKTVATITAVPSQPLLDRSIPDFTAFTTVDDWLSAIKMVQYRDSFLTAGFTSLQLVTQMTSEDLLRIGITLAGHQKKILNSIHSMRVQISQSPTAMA
Chain of NEK11 (human) (Q8NG66 whole entry, looked up): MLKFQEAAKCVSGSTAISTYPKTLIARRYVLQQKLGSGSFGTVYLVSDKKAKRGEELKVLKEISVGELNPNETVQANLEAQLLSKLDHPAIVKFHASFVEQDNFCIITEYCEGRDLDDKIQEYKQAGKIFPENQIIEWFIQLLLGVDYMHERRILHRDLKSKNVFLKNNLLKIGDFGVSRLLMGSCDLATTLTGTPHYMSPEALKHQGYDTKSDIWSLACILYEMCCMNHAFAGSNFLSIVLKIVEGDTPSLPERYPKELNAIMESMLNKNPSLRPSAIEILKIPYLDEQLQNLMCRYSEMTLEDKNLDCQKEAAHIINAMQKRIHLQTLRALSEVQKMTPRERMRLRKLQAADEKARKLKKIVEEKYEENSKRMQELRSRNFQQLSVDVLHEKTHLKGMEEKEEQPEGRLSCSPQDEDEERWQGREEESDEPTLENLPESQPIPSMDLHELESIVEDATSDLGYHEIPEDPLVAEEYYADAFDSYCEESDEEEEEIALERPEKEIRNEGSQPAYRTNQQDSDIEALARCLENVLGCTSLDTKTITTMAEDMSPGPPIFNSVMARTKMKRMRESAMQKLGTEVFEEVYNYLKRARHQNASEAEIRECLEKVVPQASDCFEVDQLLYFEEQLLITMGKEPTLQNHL
Chain of ULK1 (human) (O75385 whole entry, looked up): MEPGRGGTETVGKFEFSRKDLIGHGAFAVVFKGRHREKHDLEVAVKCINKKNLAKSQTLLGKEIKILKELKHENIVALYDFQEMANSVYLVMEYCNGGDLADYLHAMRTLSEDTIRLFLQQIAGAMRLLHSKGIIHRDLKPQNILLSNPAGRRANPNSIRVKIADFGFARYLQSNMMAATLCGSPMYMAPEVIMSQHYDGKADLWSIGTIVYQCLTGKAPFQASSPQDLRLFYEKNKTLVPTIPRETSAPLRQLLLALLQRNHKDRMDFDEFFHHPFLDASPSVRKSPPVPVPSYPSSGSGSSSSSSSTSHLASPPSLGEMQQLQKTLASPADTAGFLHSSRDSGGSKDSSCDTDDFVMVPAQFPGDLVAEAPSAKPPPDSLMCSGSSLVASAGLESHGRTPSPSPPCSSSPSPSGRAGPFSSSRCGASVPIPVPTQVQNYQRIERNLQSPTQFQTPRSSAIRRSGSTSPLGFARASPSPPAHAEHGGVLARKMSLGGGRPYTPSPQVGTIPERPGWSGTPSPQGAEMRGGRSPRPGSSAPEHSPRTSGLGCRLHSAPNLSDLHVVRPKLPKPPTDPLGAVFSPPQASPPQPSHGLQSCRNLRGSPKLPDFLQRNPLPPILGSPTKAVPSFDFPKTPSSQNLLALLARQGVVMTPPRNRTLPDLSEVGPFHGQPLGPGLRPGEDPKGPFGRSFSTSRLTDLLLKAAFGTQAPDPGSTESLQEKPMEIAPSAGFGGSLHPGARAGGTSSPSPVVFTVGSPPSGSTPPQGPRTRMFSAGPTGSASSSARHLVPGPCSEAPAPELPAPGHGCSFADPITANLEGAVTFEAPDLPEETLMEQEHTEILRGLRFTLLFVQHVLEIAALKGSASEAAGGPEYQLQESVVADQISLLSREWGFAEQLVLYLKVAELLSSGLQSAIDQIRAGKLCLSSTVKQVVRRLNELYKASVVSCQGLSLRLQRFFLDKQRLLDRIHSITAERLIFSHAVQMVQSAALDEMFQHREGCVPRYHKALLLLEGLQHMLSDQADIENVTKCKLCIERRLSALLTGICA
Chain of CAMK1 (human) (Q14012 whole entry, looked up): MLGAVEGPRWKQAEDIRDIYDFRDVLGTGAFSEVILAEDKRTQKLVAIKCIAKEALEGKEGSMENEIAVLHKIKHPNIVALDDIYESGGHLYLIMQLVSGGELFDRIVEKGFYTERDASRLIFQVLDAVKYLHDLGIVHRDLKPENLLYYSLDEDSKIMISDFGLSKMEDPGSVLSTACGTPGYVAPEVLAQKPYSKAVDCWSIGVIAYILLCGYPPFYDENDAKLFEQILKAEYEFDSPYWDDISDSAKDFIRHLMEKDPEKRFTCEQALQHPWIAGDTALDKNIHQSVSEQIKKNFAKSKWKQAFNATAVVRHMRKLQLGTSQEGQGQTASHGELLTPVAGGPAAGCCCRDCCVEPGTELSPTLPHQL
Chain of CDK6 CCND1 (human) (P24385 whole entry, looked up): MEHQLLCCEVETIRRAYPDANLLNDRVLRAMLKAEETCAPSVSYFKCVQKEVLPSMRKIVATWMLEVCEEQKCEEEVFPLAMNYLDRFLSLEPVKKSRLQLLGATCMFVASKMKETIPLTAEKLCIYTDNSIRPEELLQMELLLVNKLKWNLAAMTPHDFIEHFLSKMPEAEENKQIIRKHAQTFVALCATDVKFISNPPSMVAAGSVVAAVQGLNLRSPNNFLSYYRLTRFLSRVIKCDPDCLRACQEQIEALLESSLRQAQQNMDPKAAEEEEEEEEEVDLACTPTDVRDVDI
Chain of CDK6 CCND1 (human) (Q00534 whole entry, looked up): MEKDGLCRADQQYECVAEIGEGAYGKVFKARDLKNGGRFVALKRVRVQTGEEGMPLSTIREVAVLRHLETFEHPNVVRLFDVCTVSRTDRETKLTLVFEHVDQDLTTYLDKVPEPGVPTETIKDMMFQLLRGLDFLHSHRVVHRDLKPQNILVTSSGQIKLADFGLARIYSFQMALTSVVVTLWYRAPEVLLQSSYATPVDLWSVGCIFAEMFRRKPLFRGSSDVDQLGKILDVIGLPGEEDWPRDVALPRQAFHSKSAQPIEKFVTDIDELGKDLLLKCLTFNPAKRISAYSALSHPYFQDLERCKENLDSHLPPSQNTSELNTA
Chain of PTK2 (human) (Q05397 whole entry, looked up): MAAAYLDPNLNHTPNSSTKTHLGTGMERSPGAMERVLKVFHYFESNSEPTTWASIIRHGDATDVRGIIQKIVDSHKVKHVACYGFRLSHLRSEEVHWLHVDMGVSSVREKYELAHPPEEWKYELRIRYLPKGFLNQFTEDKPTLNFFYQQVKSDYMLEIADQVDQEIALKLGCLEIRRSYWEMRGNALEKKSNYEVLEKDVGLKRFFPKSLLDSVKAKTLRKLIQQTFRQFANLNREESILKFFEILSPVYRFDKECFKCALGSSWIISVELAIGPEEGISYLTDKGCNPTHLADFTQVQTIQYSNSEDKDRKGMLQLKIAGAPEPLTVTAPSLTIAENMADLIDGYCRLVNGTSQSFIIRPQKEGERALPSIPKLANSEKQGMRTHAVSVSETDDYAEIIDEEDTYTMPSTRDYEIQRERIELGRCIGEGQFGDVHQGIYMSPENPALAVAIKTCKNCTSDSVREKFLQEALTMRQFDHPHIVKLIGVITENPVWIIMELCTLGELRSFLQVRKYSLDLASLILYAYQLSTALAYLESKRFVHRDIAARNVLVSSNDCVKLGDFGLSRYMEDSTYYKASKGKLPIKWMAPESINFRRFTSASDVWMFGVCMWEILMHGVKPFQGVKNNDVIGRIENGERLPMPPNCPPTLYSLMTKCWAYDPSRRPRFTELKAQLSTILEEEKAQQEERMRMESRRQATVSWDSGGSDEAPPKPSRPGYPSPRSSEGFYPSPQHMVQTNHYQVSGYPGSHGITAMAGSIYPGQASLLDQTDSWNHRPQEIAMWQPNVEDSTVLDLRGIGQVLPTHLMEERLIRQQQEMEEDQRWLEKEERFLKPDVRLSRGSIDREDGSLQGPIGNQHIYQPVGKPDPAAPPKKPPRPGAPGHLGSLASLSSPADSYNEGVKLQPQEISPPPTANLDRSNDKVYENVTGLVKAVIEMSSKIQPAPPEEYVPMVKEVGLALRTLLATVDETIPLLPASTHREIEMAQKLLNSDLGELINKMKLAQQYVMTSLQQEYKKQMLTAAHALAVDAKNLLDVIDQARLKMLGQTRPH

Cc1cc2ncc(-c3ccccc3)nc2cc1C
residual activity (NEK1 (human)): 96.1%
residual activity (NUAK1 (human)): 92.3%
residual activity (PAK6 (human)): 97.4%
residual activity (CLK4 (human)): 96%
residual activity (RPS6KB2 (human)): 98.7%
residual activity [1]: 103%
residual activity (MAPK9 (human)): 104%
residual activity (PRKG1 (human)): 86.2% and 93.7%
residual activity (RET (human)): 88%
residual activity (SRPK1 (human)): 103%
residual activity (FGFR2 (human)): 108%
residual activity (PTK6 (human)): 93.6%
residual activity (PNCK (human)): 96.3%
residual activity (RPS6KA5 KD2 (human)): 96.4%
residual activity (STK24 (human)): 94.5%
residual activity (RPS6KA1 KD1 KD2 (human)): 99.2%
residual activity (CSNK1A1 (human)): 95.4%
residual activity (ULK1 (human)): 84.1%
residual activity (CDK9 CCNT1 (human)): 93.9%
residual activity (MLTK (human)): 102%
residual activity (KIT (human)): 63.5%
residual activity (NEK3 (human)): 93.7%
residual activity (EPHB1 (human)): 91.1%
residual activity (NTRK3 (human)): 88.2%
residual activity (SRPK2 (human)): 95.3%
residual activity (PTK2 (human)): 92.5%
residual activity (MAP3K11 (human)): 97.3%
residual activity (KDR (human)): 99.1%
residual activity (LYN (human)): 100% and 98.2%
residual activity (PRKCH (human)): 100%
residual activity (CAMK1 (human)): 96.2%
residual activity (NTRK2 (human)): 103%
residual activity (CDK6 CCND1 (human)): 87.1%
residual activity (PHKG2 (human)): 83.9%
residual activity (SRMS (human)): 93.5%
residual activity (TTK (human)): 91%
residual activity (LTK (human)): 90.3%
residual activity (NEK11 (human)): 104%
residual activity (FYN (human)): 99.4%
residual activity (ADRBK1 (human)): 92.5%
residual activity (MAPK3 (human)): 106%
residual activity (MELK (human)): 91.1%

CSc1nc(-c2ccc(F)cc2)c(-c2ccnc(NC(C)c3ccccc3)c2)[nH]1 (stereo unspecified)
residual activity (NEK1 (human)): 86.3%
residual activity (NUAK1 (human)): 94.3%
residual activity (PAK6 (human)): 93.5%
residual activity (CLK4 (human)): 79.2%
residual activity (RPS6KB2 (human)): 92.8%
residual activity [1]: 104%
residual activity (MAPK9 (human)): 31.1%
residual activity (PRKG1 (human)): 105%
residual activity (RET (human)): 101%
residual activity (SRPK1 (human)): 106%
residual activity (FGFR2 (human)): 95.2%
residual activity (PTK6 (human)): 96.8%
residual activity (PNCK (human)): 92.9%
residual activity (RPS6KA5 KD2 (human)): 97.3%
residual activity (STK24 (human)): 113%
residual activity (RPS6KA1 KD1 KD2 (human)): 99.4%
residual activity (CSNK1A1 (human)): 82.6%
residual activity (ULK1 (human)): 110%
residual activity (CDK9 CCNT1 (human)): 99.1%
residual activity (MLTK (human)): 85.7%
residual activity (KIT (human)): 92.4%
residual activity (NEK3 (human)): 94.7%
residual activity (EPHB1 (human)): 96.4%
residual activity (NTRK3 (human)): 93.6%
residual activity (SRPK2 (human)): 94.4%
residual activity (PTK2 (human)): 99.1%
residual activity (MAP3K11 (human)): 101%
residual activity (KDR (human)): 83.5%
residual activity (LYN (human)): 89.4% and 98.5%
residual activity (PRKCH (human)): 94.5%
residual activity (CAMK1 (human)): 96.2%
residual activity (NTRK2 (human)): 88.5%
residual activity (CDK6 CCND1 (human)): 90.9%
residual activity (PHKG2 (human)): 125%
residual activity (SRMS (human)): 104%
residual activity (TTK (human)): 102%
residual activity (LTK (human)): 83.6%
residual activity (NEK11 (human)): 108%
residual activity (FYN (human)): 98.7%
residual activity (ADRBK1 (human)): 102%
residual activity (MAPK3 (human)): 68%
residual activity (MELK (human)): 94.2%

Nc1nc(Nc2ccc(S(N)(=O)=O)cc2)nn1C(=O)c1c(F)cccc1F
residual activity (NEK1 (human)): 76.3%
residual activity (NUAK1 (human)): 3.29%
residual activity (PAK6 (human)): 101%
residual activity (CLK4 (human)): 41.6%
residual activity (RPS6KB2 (human)): 104%
residual activity [1]: 5.19%
residual activity (MAPK9 (human)): 93.7%
residual activity (PRKG1 (human)): 104% and 86.1%
residual activity (RET (human)): 54.1%
residual activity (SRPK1 (human)): 86.4%
residual activity (FGFR2 (human)): 79.7%
residual activity (PTK6 (human)): 83.9%
residual activity (PNCK (human)): 107%
residual activity (RPS6KA5 KD2 (human)): 97.2%
residual activity (STK24 (human)): 76.9%
residual activity (RPS6KA1 KD1 KD2 (human)): 42.1%
residual activity (CSNK1A1 (human)): 95.1%
residual activity (ULK1 (human)): 62.5%
residual activity (CDK9 CCNT1 (human)): 27.6%
residual activity (MLTK (human)): 100%
residual activity (KIT (human)): 81.7%
residual activity (NEK3 (human)): 92.6%
residual activity (EPHB1 (human)): 84.1%
residual activity (NTRK3 (human)): 37.6%
residual activity (SRPK2 (human)): 54.9%
residual activity (PTK2 (human)): 95.5%
residual activity (MAP3K11 (human)): 47.2%
residual activity (KDR (human)): 64.6%
residual activity (LYN (human)): 103% and 80.5%
residual activity (PRKCH (human)): 100%
residual activity (CAMK1 (human)): 90.4%
residual activity (NTRK2 (human)): 42.8%
residual activity (CDK6 CCND1 (human)): 17.1%
residual activity (PHKG2 (human)): 102%
residual activity (SRMS (human)): 96.5%
residual activity (TTK (human)): 77.5%
residual activity (LTK (human)): 85.8%
residual activity (NEK11 (human)): 95.8%
residual activity (FYN (human)): 78.6%
residual activity (ADRBK1 (human)): 97.3%
residual activity (MAPK3 (human)): 108%
residual activity (MELK (human)): 87.2%
